Assays:
Assay in all cases: Test E pre-/postemergence greenhouse test, plant response rating 0-100
Assay type in all cases: in vivo
Details in all cases: Postemergence, scale 0 to 100
[1] = tested on: Brazilian crabgrass (Digitaria horizontalis)
Source text: (§1) Seeds of plant species selected from corn (Zea mays), soybean (Glycine max), velvetleaf (Abutilon theophrasti), lambsquarters (Chenopodium album), wild poinsettia (Euphorbia heterophylla), palmer pigweed (Amaranthus palmeri), waterhemp (common waterhemp, Amaranthus rudis), surinam grass (Brachiaria decumbens), large (Lg) crabgrass (Digitaria sanguinalis), Brazilian crabgrass (Digitaria horizontalis), fall panicum (Panicum dichotomiflorum), giant foxtail (Setaria faberii), green foxtail (Setaria viridis), goosegrass (Eleusine indica), johnsongrass (Sorghum halepense), ragweed (common ragweed, Ambrosia elatior), barnyardgrass (Echinochloa crus-galli), sandbur (southern sandbur, Cenchrus echinatus), arrowleaf sida (Sida rhombifolia), Italian ryegrass (Lolium multiflorum), dayflower (Virginia (VA) dayflower, Commelina virginica), field bindweed (Convolvulus arvensis), morningglory (Ipomoea coccinea), nightshade (eastern black nightshade, Solanum ptycanthum), kochia (Kochia scoparia), yellow nutsedge (Cyperus esculentus), smartweed (ladysthumb smartweed, Polygonum persicaria), cocklebur (common cocklebur, Xanthium strumarium), and hairy beggarticks (Bidens pilosa), were planted into a silt loam soil and treated preemergence with test chemicals formulated in a non-phytotoxic solvent mixture which included a surfactant.
(§2) At the same time, plants from these crop and weed species and also waterhemp_RES1, (ALS & Triazine resistant common waterhemp, Amaranthus rudis), and waterhemp_RES2, (ALS & HPPD resistant common waterhemp, Amaranthus rudis) were planted in pots containing Redi-Earth® planting medium (Scotts Company, 14111 Scottslawn Road, Marysville, Ohio 43041) comprising spaghnum peat moss, vermiculite, wetting agent and starter nutrients were treated with postemergence applications of test chemicals formulated in the same manner. Plants ranged in height from 2 to 18 cm for postemergence treatments (1- to 4-leaf stage).
(§3) Treated plants and controls were maintained in a greenhouse for 14 to 21 days, after which time all species were compared to controls and visually evaluated. Plant response ratings, summarized in Table E, are based on a scale of 0 to 100 where 0 is no effect and 100 is complete control. A dash (-) response means no test result.

[2] = tested on: Italian ryegrass (Lolium multiflorum)
Source text: as §1, §2, §3

[3] = tested on: barnyardgrass (Echinochloa crus-galli)
Source text: as §1, §2, §3

corn (Zea mays) = tested on: corn (Zea mays)
Source text: as §1, §2, §3

[4] = tested on: dayflower (Virginia (VA) dayflower, Commelina virginica)
Source text: as §1, §2, §3

[5] = tested on: fall panicum (Panicum dichotomiflorum)
Source text: as §1, §2, §3

[6] = tested on: field bindweed (Convolvulus arvensis)
Source text: as §1, §2, §3

[7] = tested on: sandbur (southern sandbur, Cenchrus echinatus)
Source text: as §1, §2, §3

soybean (Glycine max) = tested on: soybean (Glycine max)
Source text: as §1, §2, §3

[8] = tested on: waterhemp (common waterhemp, Amaranthus rudis)
Source text: as §1, §2, §3

[9] = tested on: wild poinsettia (Euphorbia heterophylla)
Source text: as §1, §2, §3

C=CCn1cc(C(=O)c2ccccc2)c(-c2cc(Cl)cc(Cl)c2)n1 [Compound 60]
Plant response rating, Crabgrass, Brazil ([1]; 16 g ai/ha): 0 | Plant response rating, Crabgrass, Brazil ([1]; 31 g ai/ha): 0 | Plant response rating, Crabgrass, Brazil ([1]; 62 g ai/ha): 0 | Plant response rating, Crabgrass, Brazil ([1]; 125 g ai/ha): 0 | Plant response rating, Crabgrass, Brazil ([1]; 250 g ai/ha): 0 | Plant response rating, Ryegrass, Italian ([2]; 31 g ai/ha): 0 | Plant response rating, Ryegrass, Italian ([2]; 62 g ai/ha): 0 | Plant response rating, Ryegrass, Italian ([2]; 125 g ai/ha): 0 | Plant response rating, Ryegrass, Italian ([2]; 250 g ai/ha): 0 | Plant response rating, Barnyardgrass ([3]; 16 g ai/ha): 0 | Plant response rating, Barnyardgrass ([3]; 31 g ai/ha): 0 | Plant response rating, Barnyardgrass ([3]; 62 g ai/ha): 0 | Plant response rating, Barnyardgrass ([3]; 125 g ai/ha): 0 | Plant response rating, Barnyardgrass ([3]; 250 g ai/ha): 0 | Plant response rating, Corn (corn (Zea mays); 16 g ai/ha): 0 | Plant response rating, Corn (corn (Zea mays); 31 g ai/ha): 0 | Plant response rating, Corn (corn (Zea mays); 62 g ai/ha): 0 | Plant response rating, Corn (corn (Zea mays); 125 g ai/ha): 0 | Plant response rating, Corn (corn (Zea mays); 250 g ai/ha): 0 | Plant response rating, Dayflower, VA ([4]; 16 g ai/ha): 0 | Plant response rating, Dayflower, VA ([4]; 31 g ai/ha): 0 | Plant response rating, Dayflower, VA ([4]; 62 g ai/ha): 0 | Plant response rating, Dayflower, VA ([4]; 125 g ai/ha): 0 | Plant response rating, Dayflower, VA ([4]; 250 g ai/ha): 0 | Plant response rating, Panicum, Fall ([5]; 31 g ai/ha): 0 | Plant response rating, Panicum, Fall ([5]; 62 g ai/ha): 0 | Plant response rating, Panicum, Fall ([5]; 125 g ai/ha): 0 | Plant response rating, Panicum, Fall ([5]; 250 g ai/ha): 0 | Plant response rating, Field Bindweed ([6]; 16 g ai/ha): 0 | Plant response rating, Field Bindweed ([6]; 31 g ai/ha): 0 | Plant response rating, Field Bindweed ([6]; 62 g ai/ha): 0 | Plant response rating, Field Bindweed ([6]; 125 g ai/ha): 0 | Plant response rating, Field Bindweed ([6]; 250 g ai/ha): 0 | Plant response rating, Sandbur ([7]; 31 g ai/ha): 0 | Plant response rating, Sandbur ([7]; 62 g ai/ha): 0 | Plant response rating, Sandbur ([7]; 125 g ai/ha): 0 | Plant response rating, Sandbur ([7]; 250 g ai/ha): 0 | Plant response rating, Soybean (soybean (Glycine max); 31 g ai/ha): 0 | Plant response rating, Soybean (soybean (Glycine max); 62 g ai/ha): 0 | Plant response rating, Soybean (soybean (Glycine max); 125 g ai/ha): 0 | Plant response rating, Soybean (soybean (Glycine max); 250 g ai/ha): 0 | Plant response rating, Waterhemp ([8]; 31 g ai/ha): 20 | Plant response rating, Waterhemp ([8]; 62 g ai/ha): 25 | Plant response rating, Waterhemp ([8]; 125 g ai/ha): 25 | Plant response rating, Waterhemp ([8]; 250 g ai/ha): 30 | Plant response rating, Poinsettia, Wild ([9]; 31 g ai/ha): 0 | Plant response rating, Poinsettia, Wild ([9]; 62 g ai/ha): 0 | Plant response rating, Poinsettia, Wild ([9]; 125 g ai/ha): 0 | Plant response rating, Poinsettia, Wild ([9]; 250 g ai/ha): 0
